PubChem BioAssay (NCI)
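Tested at 5 concentrations; 48 h exposure; 96-well plates; endpoints linearly interpolated, else capped at highest concentration. Abbreviation: GI50, concentration required for 50% inhibition of growth. Definition used: TGI = concentration required for complete inhibition of growth.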

Assays:
Experiment in all cases: DTP human tumour cell line panel, 48 h
MDA-MB-468 breast = test system: MDA-MB-468 breast
786-0 renal = test system: 786-0 renal
A498 renal = test system: A498 renal
A549 NSCLC = test system: A549 NSCLC
ACHN renal = test system: ACHN renal
BT-549 breast = test system: BT-549 breast
CAKI-1 renal = test system: CAKI-1 renal
CCRF-CEM leukemia = test system: CCRF-CEM leukemia
DU-145 prostate = test system: DU-145 prostate
EKVX NSCLC = test system: EKVX NSCLC
HCC-2998 colon = test system: HCC-2998 colon
HCT-116 colon = test system: HCT-116 colon
HCT-15 colon = test system: HCT-15 colon
HOP-62 NSCLC = test system: HOP-62 NSCLC
HOP-92 NSCLC = test system: HOP-92 NSCLC
HS 578T breast = test system: HS 578T breast
IGROV1 ovarian = test system: IGROV1 ovarian
KM12 colon = test system: KM12 colon
LOX IMVI melanoma = test system: LOX IMVI melanoma
M14 melanoma = test system: M14 melanoma
MALME-3M melanoma = test system: MALME-3M melanoma
MDA-MB-231 breast = test system: MDA-MB-231 breast
MDA-MB-435 = test system: MDA-MB-435
MOLT-4 leukemia = test system: MOLT-4 leukemia
NCI-H226 lung = test system: NCI-H226 lung
NCI-H23 lung = test system: NCI-H23 lung
NCI-H460 lung = test system: NCI-H460 lung
NCI-H522 lung = test system: NCI-H522 lung
NCI/ADR-RES ovarian = test system: NCI/ADR-RES ovarian
OVCAR-3 ovarian = test system: OVCAR-3 ovarian
OVCAR-4 ovarian = test system: OVCAR-4 ovarian
OVCAR-5 ovarian = test system: OVCAR-5 ovarian
OVCAR-8 ovarian = test system: OVCAR-8 ovarian
PC-3 prostate = test system: PC-3 prostate
RPMI-8226 leukemia = test system: RPMI-8226 leukemia
RXF 393 renal = test system: RXF 393 renal
SF-268 CNS = test system: SF-268 CNS
SF-295 CNS = test system: SF-295 CNS
SF-539 CNS = test system: SF-539 CNS
SK-MEL-2 melanoma = test system: SK-MEL-2 melanoma
SK-MEL-28 melanoma = test system: SK-MEL-28 melanoma
SK-MEL-5 melanoma = test system: SK-MEL-5 melanoma
SK-OV-3 ovarian = test system: SK-OV-3 ovarian
SN12C renal = test system: SN12C renal
SNB-19 CNS = test system: SNB-19 CNS
SNB-75 CNS = test system: SNB-75 CNS
T-47D breast = test system: T-47D breast
TK-10 renal = test system: TK-10 renal
U251 CNS = test system: U251 CNS
UACC-257 melanoma = test system: UACC-257 melanoma
UACC-62 melanoma = test system: UACC-62 melanoma
UO-31 renal = test system: UO-31 renal

In the case of `CC1(C)[C@@H](OC(N)=O)[C@H]2O[C@H]2[C@]2(CO)[C@H]3CC[C@]4(C)[C@@H](c5ccc(=O)oc5)[C@@H](Cl)C[C@]4(O)C3=CC[C@@H]12`, the GI50 (MDA-MB-468 breast) is reported as 0.021 µM and the TGI (MDA-MB-468 breast) is reported as 0.0965 µM.
`COC(=O)c1cc2ccc(OC(C)=O)c(OC(C)=O)c2cn1` was tested, and the GI50 (MDA-MB-468 breast) was 16.1 µM and the TGI (MDA-MB-468 breast) was 33.5 µM.
Compound `C1CN(SSN2CCOCC2)CCO1` has a GI50 (MDA-MB-468 breast) greater than 100 µM and a TGI (MDA-MB-468 breast) greater than 100 µM.
With `COc1ccc2[nH]cc(-c3cc(N)n4nc(-c5c[nH]c6ccccc56)cc4n3)c2c1` the GI50 (786-0 renal) was 1.57 µM, the TGI (786-0 renal) was 3 µM and the GI50 (A498 renal) was 11.4 µM. The TGI (A498 renal) was 24.4 µM, the GI50 (A549 NSCLC) was 3.14 µM and the TGI (A549 NSCLC) was 13.9 µM. The GI50 (ACHN renal) was 2.62 µM, the TGI (ACHN renal) was 6.99 µM and the GI50 (BT-549 breast) was 13.3 µM. The TGI (BT-549 breast) was 26.1 µM, the GI50 (CAKI-1 renal) was 2.32 µM and the TGI (CAKI-1 renal) was 6.44 µM. For the same compound, the GI50 (CCRF-CEM leukemia) was 2.6 µM, the TGI (CCRF-CEM leukemia) was 6.46 µM and the GI50 (DU-145 prostate) was 5.19 µM. For the same compound, the TGI (DU-145 prostate) was 19.3 µM, the GI50 (EKVX NSCLC) was 3.93 µM and the TGI (EKVX NSCLC) was 15.9 µM. It also gave a GI50 (HCC-2998 colon) of 1.77 µM, a TGI (HCC-2998 colon) of 3.38 µM and a GI50 (HCT-116 colon) of 1.75 µM. For the same compound, the TGI (HCT-116 colon) was 3.12 µM, the GI50 (HCT-15 colon) was 1.66 µM and the TGI (HCT-15 colon) was 3.33 µM. The GI50 (HOP-62 NSCLC) was 3.14 µM, the TGI (HOP-62 NSCLC) was 7.88 µM and the GI50 (HOP-92 NSCLC) was 3.04 µM. The TGI (HOP-92 NSCLC) was 11.9 µM, the GI50 (HS 578T breast) was 6.69 µM and the TGI (HS 578T breast) was greater than 100 µM. For the same compound, the GI50 (IGROV1 ovarian) was 4.52 µM, the TGI (IGROV1 ovarian) was 17 µM and the GI50 (KM12 colon) was 2.21 µM. The TGI (KM12 colon) was 5.01 µM, the GI50 (LOX IMVI melanoma) was 1.64 µM and the TGI (LOX IMVI melanoma) was 3.01 µM. The GI50 (M14 melanoma) was 1.79 µM, the TGI (M14 melanoma) was 3.32 µM and the GI50 (MALME-3M melanoma) was 1.7 µM. For the same compound, the TGI (MALME-3M melanoma) was 3.07 µM, the GI50 (MDA-MB-231 breast) was 1.91 µM and the TGI (MDA-MB-231 breast) was 3.58 µM. It also gave a GI50 (MDA-MB-435) of 2.04 µM, a TGI (MDA-MB-435) of 4.11 µM and a GI50 (MDA-MB-468 breast) of 1.66 µM. For the same compound, the TGI (MDA-MB-468 breast) was 3.12 µM, the GI50 (MOLT-4 leukemia) was 2.25 µM and the TGI (MOLT-4 leukemia) was 6.05 µM. The GI50 (NCI-H226 lung) was 11.5 µM, the TGI (NCI-H226 lung) was 28 µM and the GI50 (NCI-H23 lung) was 3.15 µM. For the same compound, the TGI (NCI-H23 lung) was 10.2 µM, the GI50 (NCI-H460 lung) was 2.74 µM and the TGI (NCI-H460 lung) was 7.59 µM. The GI50 (NCI-H522 lung) was 1.64 µM, the TGI (NCI-H522 lung) was 3.51 µM and the GI50 (NCI/ADR-RES ovarian) was 5.84 µM. The TGI (NCI/ADR-RES ovarian) was 24 µM, the GI50 (OVCAR-3 ovarian) was 3.27 µM and the TGI (OVCAR-3 ovarian) was 16.6 µM. The GI50 (OVCAR-4 ovarian) was 5.06 µM, the TGI (OVCAR-4 ovarian) was 17.8 µM and the GI50 (OVCAR-5 ovarian) was 3.86 µM. The TGI (OVCAR-5 ovarian) was 13.4 µM, the GI50 (OVCAR-8 ovarian) was 4.12 µM and the TGI (OVCAR-8 ovarian) was 33.3 µM. It also gave a GI50 (PC-3 prostate) of 3.33 µM, a TGI (PC-3 prostate) of 14.8 µM and a GI50 (RPMI-8226 leukemia) of 2.37 µM. The TGI (RPMI-8226 leukemia) was 5.51 µM, the GI50 (RXF 393 renal) was 1.38 µM and the TGI (RXF 393 renal) was 3.48 µM. It also gave a GI50 (SF-268 CNS) of 9.09 µM, a TGI (SF-268 CNS) of 37.3 µM and a GI50 (SF-295 CNS) of 1.83 µM. For the same compound, the TGI (SF-295 CNS) was 3.55 µM, the GI50 (SF-539 CNS) was 1.68 µM and the TGI (SF-539 CNS) was 3.05 µM. For the same compound, the GI50 (SK-MEL-2 melanoma) was 1.83 µM, the TGI (SK-MEL-2 melanoma) was 3.8 µM and the GI50 (SK-MEL-28 melanoma) was 1.72 µM. For the same compound, the TGI (SK-MEL-28 melanoma) was 3.1 µM, the GI50 (SK-MEL-5 melanoma) was 1.7 µM and the TGI (SK-MEL-5 melanoma) was 3.07 µM. The GI50 (SK-OV-3 ovarian) was 15 µM, the TGI (SK-OV-3 ovarian) was 33.1 µM and the GI50 (SN12C renal) was 10.1 µM. It also gave a TGI (SN12C renal) of 22.8 µM, a GI50 (SNB-19 CNS) of 4.25 µM and a TGI (SNB-19 CNS) of 14.8 µM. For the same compound, the GI50 (SNB-75 CNS) was 11.2 µM, the TGI (SNB-75 CNS) was 29.2 µM and the GI50 (T-47D breast) was 3.05 µM. For the same compound, the TGI (T-47D breast) was 26.3 µM, the GI50 (TK-10 renal) was 3.53 µM and the TGI (TK-10 renal) was 12.1 µM. For the same compound, the GI50 (U251 CNS) was 2.08 µM, the TGI (U251 CNS) was 4.67 µM and the GI50 (UACC-257 melanoma) was 1.73 µM. The TGI (UACC-257 melanoma) was 3.21 µM, the GI50 (UACC-62 melanoma) was 1.73 µM and the TGI (UACC-62 melanoma) was 3.16 µM. The GI50 (UO-31 renal) was 1.86 µM and the TGI (UO-31 renal) was 4.65 µM.
